Assay results taken from ChEMBL document CHEMBL1201862, “PubChem BioAssay data set” (2004).
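Step 1: Grow cells in 96-well plates. Step 2: Expose to compound for 48 hours at 5 concentrations. Step 3: Interpolate endpoints linearly; if unreached, use highest concentration. Here, GI50 denotes the concentration required for 50% inhibition of growth.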 The source made the active and inactive calls. Rule as the data show it: active = GI50 up to about 1.1 µM and inactive = higher. Where a SMILES comes first, the peptide text is derived from it. [ ]: non-standard residue; d: D form. ξ: configuration not given here. ξThz(5,5-Me2) = CC1(C)SCNC1C(=O)O

Columns and labels:
Assay in all cases: NCI-60 cell line screen, 48 h
786-0 = tested on: 786-0
OVCAR-3 = tested on: OVCAR-3
HOP-62 = tested on: HOP-62
UACC-257 = tested on: UACC-257
SK-MEL-5 = tested on: SK-MEL-5
HCT-116 = tested on: HCT-116
SF-539 = tested on: SF-539
COLO 205 = tested on: COLO 205
HCC 2998 = tested on: HCC 2998
OVCAR-5 = tested on: OVCAR-5
Hs-578T = tested on: Hs-578T
SW-620 = tested on: SW-620
SF-268 = tested on: SF-268
UO-31 = tested on: UO-31
HOP-92 = tested on: HOP-92
TK-10 = tested on: TK-10
U-251 = tested on: U-251
SR = tested on: SR
SK-MEL-2 = tested on: SK-MEL-2
BT-549 = tested on: BT-549

Measured: GI50

O=C1C2CCCC2N1Cc1ccccc1 (configuration not stated)
inactive: 786-0 > 100 µM | OVCAR-3 > 100 µM | HOP-62 > 100 µM | UACC-257 > 100 µM | SK-MEL-5 > 100 µM | HCT-116 > 100 µM | SF-539 > 100 µM | COLO 205 > 100 µM | HCC 2998 > 100 µM | OVCAR-5 > 100 µM | Hs-578T > 100 µM | SW-620 > 100 µM | SF-268 > 100 µM | UO-31 15.1 µM | HOP-92 > 100 µM | TK-10 > 100 µM

O=[N+]([O-])C1(CO)COC(CCc2ccccc2)OC1 (configuration not stated)
inactive: 786-0 > 100 µM | OVCAR-3 > 100 µM | HOP-62 > 100 µM | UACC-257 > 100 µM | U-251 > 100 µM | SK-MEL-5 > 100 µM | HCT-116 > 100 µM | SF-539 > 100 µM | HCC 2998 > 100 µM | OVCAR-5 > 100 µM | SW-620 > 100 µM | UO-31 > 100 µM | SR > 100 µM | SK-MEL-2 > 100 µM | HOP-92 7.13 µM | TK-10 > 100 µM

CC1(C)Cc2ccccc2C(C)(Cl)C(=O)N1 (configuration not stated)
inactive: 786-0 > 10 µM | OVCAR-3 > 10 µM | HOP-62 > 10 µM | UACC-257 > 10 µM | U-251 > 10 µM | HCT-116 > 10 µM | SF-539 > 10 µM | COLO 205 > 10 µM | HCC 2998 > 10 µM | OVCAR-5 > 10 µM | SW-620 > 10 µM | SF-268 > 10 µM | UO-31 > 10 µM | SR > 10 µM | BT-549 > 10 µM | HOP-92 > 10 µM | TK-10 > 10 µM

CC(C)C(/C=C/c1ccc(Br)cc1)=N\NC(N)=O
inactive: 786-0 > 100 µM | HOP-62 > 100 µM | UACC-257 > 100 µM | U-251 > 100 µM | SK-MEL-5 > 100 µM | HCT-116 > 100 µM | SF-539 > 100 µM | COLO 205 > 100 µM | HCC 2998 12.3 µM | OVCAR-5 > 100 µM | SW-620 > 100 µM | SF-268 > 100 µM | UO-31 18.2 µM | SR > 100 µM | SK-MEL-2 > 100 µM | HOP-92 > 100 µM | TK-10 > 100 µM

COC(=O)c1nc(-c2ccc(Cl)c(Cl)c2)nc2ccc(Cl)cc12
inactive: 786-0 27.5 µM | OVCAR-3 > 10 µM | UACC-257 > 100 µM | U-251 43.7 µM | SK-MEL-5 > 100 µM | HCT-116 18.4 µM | SF-539 17.5 µM | COLO 205 > 100 µM | HCC 2998 > 100 µM | OVCAR-5 27.4 µM | SW-620 > 100 µM | SF-268 92.9 µM | UO-31 33.6 µM | SR > 100 µM | SK-MEL-2 > 100 µM | HOP-92 10.8 µM | TK-10 44 µM

Cc1cn(C2CC(OC3CCCCO3)C(CO)O2)c(=O)[nH]c1=O (configuration not stated)
inactive: 786-0 > 100 µM | OVCAR-3 > 100 µM | HOP-62 > 100 µM | UACC-257 > 100 µM | U-251 > 100 µM | HCT-116 > 100 µM | SF-539 > 100 µM | COLO 205 > 100 µM | HCC 2998 > 100 µM | OVCAR-5 > 100 µM | SW-620 > 100 µM | SF-268 > 100 µM | UO-31 > 100 µM | SR > 100 µM | SK-MEL-2 > 100 µM | HOP-92 > 100 µM | TK-10 > 100 µM

CCc1ccc(/C(C)=N/NC(N)=S)cc1
inactive: 786-0 > 100 µM | OVCAR-3 > 100 µM | HOP-62 > 100 µM | U-251 > 100 µM | SK-MEL-5 78.2 µM | HCT-116 > 100 µM | SF-539 > 100 µM | COLO 205 > 100 µM | HCC 2998 > 100 µM | OVCAR-5 13.1 µM | SF-268 > 100 µM | UO-31 > 100 µM | SR > 100 µM | SK-MEL-2 > 100 µM | HOP-92 > 100 µM | TK-10 > 100 µM

CC(=O)N(O)c1ccc(-c2nc3ccccc3s2)cc1
inactive: 786-0 55.1 µM | OVCAR-3 52.2 µM | HOP-62 42.1 µM | UACC-257 > 100 µM | U-251 87.9 µM | SK-MEL-5 39.2 µM | HCT-116 68.5 µM | COLO 205 > 100 µM | HCC 2998 61.9 µM | OVCAR-5 > 100 µM | Hs-578T 32.7 µM | SW-620 > 100 µM | SF-268 74.6 µM | UO-31 46 µM | SR > 100 µM | SK-MEL-2 66.7 µM | HOP-92 64.4 µM | TK-10 80.7 µM

C[Si](C)(C)/C=C\CCO
inactive: 786-0 > 100 µM | OVCAR-3 > 100 µM | UACC-257 > 100 µM | U-251 > 100 µM | SK-MEL-5 > 100 µM | HCT-116 > 100 µM | SF-539 > 100 µM | COLO 205 > 100 µM | HCC 2998 > 100 µM | OVCAR-5 > 100 µM | SW-620 > 100 µM | SF-268 > 100 µM | UO-31 > 100 µM | SR > 100 µM | SK-MEL-2 > 100 µM | HOP-92 > 100 µM | TK-10 > 100 µM

C=C(C)[C@@H]1CCC2=C[C@H](OC2=O)[C@@]2(C)C[C@@H]2C2=CC(C)=C(O2)[C@H]1O
inactive: 786-0 21.8 µM | OVCAR-3 43.4 µM | HOP-62 > 75 µM | UACC-257 39.1 µM | U-251 > 75 µM | HCT-116 22.3 µM | SF-539 49.8 µM | COLO 205 33.2 µM | HCC 2998 > 75 µM | OVCAR-5 > 75 µM | SW-620 > 75 µM | SF-268 30.7 µM | UO-31 60.8 µM | SR > 75 µM | SK-MEL-2 40.8 µM | HOP-92 > 75 µM | TK-10 38.7 µM

CC1SCc2nc3ccccc3n21 (configuration not stated)
inactive: 786-0 > 100 µM | OVCAR-3 > 100 µM | HOP-62 > 100 µM | UACC-257 > 100 µM | U-251 > 100 µM | SK-MEL-5 > 100 µM | HCT-116 > 100 µM | SF-539 > 100 µM | COLO 205 > 100 µM | HCC 2998 > 100 µM | OVCAR-5 > 100 µM | Hs-578T > 100 µM | SF-268 > 100 µM | UO-31 > 100 µM | SK-MEL-2 > 100 µM | HOP-92 > 100 µM | TK-10 > 100 µM

CSCC[C@H](NC(=O)[C@H](CC(C)C)NC(=O)[C@H](Cc1c[nH]cn1)NC(=O)CNC(=O)C1N(C(=O)[C@@H](C)NC(=O)[C@H](Cc2c[nH]c3ccccc23)NC(=O)[C@H](CCC(N)=O)NC(=O)[C@@H](N)CC(N)=O)CSC1(C)C)C(N)=O (some centres not stated) (H-NQW[dA][ξThz(5,5-Me2)]GHLM-NH2)
inactive: 786-0 > 25 µM | OVCAR-3 > 25 µM | HOP-62 > 25 µM | UACC-257 > 25 µM | U-251 > 25 µM | SK-MEL-5 > 25 µM | HCT-116 > 25 µM | SF-539 > 25 µM | COLO 205 > 25 µM | HCC 2998 > 25 µM | OVCAR-5 > 25 µM | Hs-578T > 25 µM | SW-620 > 25 µM | SF-268 > 25 µM | SR > 25 µM | HOP-92 > 25 µM | TK-10 > 25 µM
